Assay results as given in PubChem BioAssay AID330 (DTP/NCI, 2004).
Values joined by “and” are separate entries in the source; they are usually repeats but may differ in a detail not shown here. Equal entries are not always repeated. Inconclusive results and toxic doses are left out. Rule for the calls: active = survival T/C of 150% or more; inactive = T/C below 125% in these data. Peptide text beside a SMILES is read from it. * marks the point of attachment. Cbz = O=C(OCc1ccccc1)*

Tested on: P388 leukemia ip, CD2F1 mice, survival T/C
Assay: NCI In Vivo Anticancer Drug Screen. Data for tumor model P388 Leukemia (intraperitoneal) in CD2F1 (CDF1) mice
Conditions: endpoint: median survival time, higher = longer survival
Summary of the method: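 Mice carrying the transplanted tumor received test compound or vehicle. Survival was recorded in each group, and the value is the treated-group measurement divided by that of the vehicle-treated control group.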

[1] = dose: 50.0 mg/kg/injection, schedule: Q01DX005 (ip), vehicle: Klucel (hydroxypropylcellulose) (HPC)
[2] = dose: 100.0 mg/kg/injection, schedule: Q01DX005 (ip), vehicle: Klucel (hydroxypropylcellulose) (HPC)
[3] = dose: 200.0 mg/kg/injection, schedule: Q01DX005 (ip), vehicle: Klucel (hydroxypropylcellulose) (HPC)
[4] = dose: 50.0 mg/kg/injection, schedule: Q01DX005 (ip), vehicle: saline with Tween-80
[5] = dose: 100.0 mg/kg/injection, schedule: Q01DX005 (ip), vehicle: saline with Tween-80
[6] = dose: 200.0 mg/kg/injection, schedule: Q01DX005 (ip), vehicle: saline with Tween-80
[7] = dose: 60.0 mg/kg/injection, schedule: Q01DX005 (ip), vehicle: saline with Tween-80
[8] = dose: 120.0 mg/kg/injection, schedule: Q01DX005 (ip), vehicle: saline with Tween-80
[9] = dose: 240.0 mg/kg/injection, schedule: Q01DX005 (ip), vehicle: saline with Tween-80
[10] = dose: 50.0 mg/kg/injection, schedule: Q01DX005 (ip), vehicle: saline
[11] = dose: 100.0 mg/kg/injection, schedule: Q01DX005 (ip), vehicle: saline
[12] = dose: 200.0 mg/kg/injection, schedule: Q01DX005 (ip), vehicle: saline
[13] = dose: 50.0 mg/kg/injection, schedule: Q01DX009 (ip), vehicle: saline
[14] = dose: 100.0 mg/kg/injection, schedule: Q01DX009 (ip), vehicle: saline
[15] = dose: 60.0 mg/kg/injection, schedule: Q01DX005 (ip), vehicle: saline

Measured: T/C

CCOC(=O)/C(C(C)=O)=C1/c2c(ccc(OC)c2OC)C=C2c3cc4c(cc3CCN21)OCO4
inactive: dose: 0.63 mg/kg/injection, schedule: Q01DX009 (ip), vehicle: water 105 % of control | dose: 1.25 mg/kg/injection, schedule: Q01DX009 (ip), vehicle: water 108 % of control | dose: 2.5 mg/kg/injection, schedule: Q01DX009 (ip), vehicle: water 101 % of control | dose: 5.0 mg/kg/injection, schedule: Q01DX009 (ip), vehicle: water 124 % of control | dose: 10.0 mg/kg/injection, schedule: Q01DX009 (ip), vehicle: water 101 % of control | dose: 20.0 mg/kg/injection, schedule: Q01DX009 (ip), vehicle: water 107 % of control

CC(C)OCCCNCC(=O)Nc1ccc(S(=O)(=O)c2ccc(NC(=O)CNCCCOC(C)C)cc2)cc1
inactive: [1] 95 % of control | [2] 100 % of control | [3] 100 % of control

Nc1nc2c(-c3ccc([N+](=O)[O-])cc3)nnn2c2ccccc12
inactive: dose: 50.0 mg/kg/injection, schedule: Q01DX009 (ip), vehicle: saline with Tween-80 95 % of control | dose: 100.0 mg/kg/injection, schedule: Q01DX009 (ip), vehicle: saline with Tween-80 86 % of control | dose: 200.0 mg/kg/injection, schedule: Q01DX009 (ip), vehicle: saline with Tween-80 95 % of control

C1CCc2nc3c(nc2C1)CCCC3
inactive: [4] 101 % of control | [5] 101 % of control | [6] 92 % of control

FC(F)(F)C(F)(F)C(F)(F)C(F)(F)C(F)(F)C(F)(F)C[CH2][Sn]([Br])([Br])[CH2]CC(F)(F)C(F)(F)C(F)(F)C(F)(F)C(F)(F)C(F)(F)F
inactive: [7] 109 % of control | [8] 105 % of control | [9] 108 % of control

Cc1cccc(/C=N/Nc2cc(C)c3cccc(C)c3n2)n1
inactive: [4] 100 % of control | [5] 89 % of control | [6] 88 % of control

CCOC(=O)C(Cc1c[nH]c2ccccc12)NC(=O)C(Cc1ccccc1)NC(=O)C(Cc1cnc[nH]1)NC(=O)OCc1ccccc1 (stereo not drawn) (Cbz-His-Phe-Trp-OEt; configuration not given here)
inactive: [1] 93 % of control | [2] 93 % of control | [3] 89 % of control

CCC(COC(=O)c1ccc(N(CC)CC)cc1)NC1CCCCC1 (configuration not stated)
inactive: [7] 111 % of control | [8] 90 % of control

CCC(C)C(NC(=O)OCc1ccccc1)C(=O)NC(CC(C)C)C(=O)O (stereo not drawn) (Cbz-Ile-Leu-OH; configuration not given here)
inactive: [1] 114 % of control | [2] 99 % of control | [3] 99 % of control

CCOC(=O)N1C2CCC1C(C)C(=O)C2 (configuration not stated)
inactive: [10] 96 % of control | [11] 96 % of control and 104 % of control | [12] 94 % of control

O=C1C=CC(Nc2ccc(Cl)c(Cl)c2)C1Nc1ccc(Cl)c(Cl)c1 (configuration not stated)
inactive: [7] 100 % of control | [8] 93 % of control | [9] 93 % of control

COc1ccc(-c2c(C)c(C)nc(Cl)c2C#N)c(OCc2ccccc2)c1OC
inactive: dose: 0.05 mg/kg/injection, schedule: Q01DX009 (ip), vehicle: water 100 % of control | dose: 0.1 mg/kg/injection, schedule: Q01DX009 (ip), vehicle: water 104 % of control | dose: 0.2 mg/kg/injection, schedule: Q01DX009 (ip), vehicle: water 104 % of control | dose: 0.4 mg/kg/injection, schedule: Q01DX009 (ip), vehicle: other 96 % of control | dose: 0.4 mg/kg/injection, schedule: Q01DX009 (ip), vehicle: water 99 % of control | dose: 0.8 mg/kg/injection, schedule: Q01DX009 (ip), vehicle: other 97 % of control | dose: 1.6 mg/kg/injection, schedule: Q01DX009 (ip), vehicle: other 94 % of control | dose: 3.2 mg/kg/injection, schedule: Q01DX009 (ip), vehicle: other 100 % of control | dose: 6.25 mg/kg/injection, schedule: Q01DX009 (ip), vehicle: other 110 % of control | dose: 6.4 mg/kg/injection, schedule: Q01DX009 (ip), vehicle: other 102 % of control | dose: 12.5 mg/kg/injection, schedule: Q01DX009 (ip), vehicle: other 108 % of control | dose: 25.0 mg/kg/injection, schedule: Q01DX009 (ip), vehicle: other 104 % of control | dose: 50.0 mg/kg/injection, schedule: Q01DX009 (ip), vehicle: other 103 % of control | dose: 100.0 mg/kg/injection, schedule: Q01DX009 (ip), vehicle: other 111 % of control | dose: 200.0 mg/kg/injection, schedule: Q01DX009 (ip), vehicle: other 102 % of control | dose: 400.0 mg/kg/injection, schedule: Q01DX009 (ip), vehicle: other 105 % of control

O=S(=O)(CC(O)C(Cl)(Cl)Cl)NNc1ccccc1 (configuration not stated)
inactive: [13] 99 % of control | [14] 112 % of control

C=CC/C(=N\OS(=O)(=O)O)SC1OC(CO)C(O)C(O)C1O (configuration not stated)
inactive: dose: 25.0 mg/kg/injection, schedule: Q01DX005 (ip), vehicle: saline 92 % of control and 98 % of control | [10] 102 % of control [middle of 4 runs] | [11] 101 % of control and 102 % of control and 104 % of control | [12] 100 % of control and 101 % of control and 98 % of control

CCCCN(C(=O)c1ccccc1)c1nc2ccccc2n1C
inactive: dose: 100.0 mg/kg/injection, schedule: Q04DX003 (ip), vehicle: saline 95 % of control | dose: 200.0 mg/kg/injection, schedule: Q04DX003 (ip), vehicle: saline 98 % of control | dose: 400.0 mg/kg/injection, schedule: Q04DX003 (ip), vehicle: saline 99 % of control

O=C(O)C(O)C(F)(F)C(F)(F)C(F)(F)F (configuration not stated)
inactive: [4] 97 % of control | [5] 94 % of control | [6] 88 % of control

O=[N+]([O-])c1cc([N+](=O)[O-])c2ccc(S(=O)(=O)O)cc2c1O
inactive: dose: 12.5 mg/kg/injection, schedule: Q04DX002 (ip), vehicle: saline 100 % of control | dose: 15.0 mg/kg/injection, schedule: Q01DX005 (ip), vehicle: saline 105 % of control | dose: 30.0 mg/kg/injection, schedule: Q01DX005 (ip), vehicle: saline 99 % of control | dose: 50.0 mg/kg/injection, schedule: Q04DX002 (ip), vehicle: saline 93 % of control | [15] 100 % of control and 97 % of control | dose: 100.0 mg/kg/injection, schedule: Q01DX001 (ip), vehicle: saline with Tween-80 102 % of control | dose: 100.0 mg/kg/injection, schedule: Q04DX002 (ip), vehicle: saline with Tween-80 98 % of control | dose: 200.0 mg/kg/injection, schedule: Q01DX001 (ip), vehicle: saline with Tween-80 96 % of control

COC(=O)C(CCc1ccc([N+](=O)[O-])cc1)C(C)=O (configuration not stated)
inactive: [15] 102 % of control | dose: 120.0 mg/kg/injection, schedule: Q01DX005 (ip), vehicle: saline 97 % of control | dose: 240.0 mg/kg/injection, schedule: Q01DX005 (ip), vehicle: saline 95 % of control

CC(NC(=O)C(N)Cc1ccc(O)cc1)C(=O)NCC(=O)N(C)C(Cc1ccccc1)C(=O)NC(CO)CCS(C)=O (configuration not stated)
inactive: [13] 115 % of control | [14] 95 % of control | dose: 200.0 mg/kg/injection, schedule: Q01DX009 (ip), vehicle: saline 105 % of control

CC(C)CC(=O)CC(=O)C(C)(C)C.CC(C)CC(=O)CC(=O)C(C)(C)C.CC(C)CC(=O)CC(=O)C(C)(C)C.CC(C)CC(=O)CC(=O)C(C)(C)C.[Ce]
inactive: dose: 50.0 mg/kg/injection, schedule: Q01DX009 (ip), vehicle: distilled water + alcohol 106 % of control | dose: 100.0 mg/kg/injection, schedule: Q01DX009 (ip), vehicle: distilled water + alcohol 103 % of control | dose: 200.0 mg/kg/injection, schedule: Q01DX009 (ip), vehicle: distilled water + alcohol 106 % of control

CCCCN(CCCC)CCCNC(c1ccc(N(C)C)cc1)c1ccc(N(C)C)cc1
inactive: dose: 25.0 mg/kg/injection, schedule: Q01DX005 (ip), vehicle: Klucel (hydroxypropylcellulose) (HPC) 98 % of control | [1] 104 % of control | [2] 98 % of control | [3] 102 % of control

O=C(O)c1cn2cccnc2n1
inactive: dose: 100.0 mg/kg/injection, schedule: Q01DX001 (ip), vehicle: Klucel (hydroxypropylcellulose) (HPC) 100 % of control | dose: 200.0 mg/kg/injection, schedule: Q01DX001 (ip), vehicle: Klucel (hydroxypropylcellulose) (HPC) 98 % of control | dose: 400.0 mg/kg/injection, schedule: Q01DX001 (ip), vehicle: Klucel (hydroxypropylcellulose) (HPC) 99 % of control
